According to publication PMC8286840, “Identifying SARS-CoV-2 antiviral compounds by screening for small molecule inhibitors of Nsp3 papain-like protease” (Biochemical Journal, 2021):
Structures can show the parent of a compound that is named as a salt. Where two headings read alike, the source gives them in different places.

How the values were obtained:
[1] = target: T1, SARS-CoV-2 PLpro (nsp3 1564–1878) (Severe acute respiratory syndrome coronavirus 2, UniProt P0DTD1); test: biochemical; set-up: FRET-quenched peptide (Pro3) cleavage by PLpro, 10 min pre-incubation, slope over 20 min, normalised to no-compound control; conditions: low concentration screen, read-out: % of control remaining
[2] = target: T1, SARS-CoV-2 PLpro (nsp3 1564–1878); test: biochemical; set-up: FRET-quenched peptide (Pro3) cleavage by PLpro, 10 min pre-incubation, slope over 20 min, normalised to no-compound control; conditions: high concentration screen, read-out: % of control remaining

SMILES: Cc1cn([C@H]2O[C@@H](CO)[C@H](O)[C@H]2F)c(=O)[nH]c1=O [Clevudine]
- remaining activity at 1.25 µM ([1]; Well no.=8012): 98%
- remaining activity at 1.25 µM ([1]; Well no.=8342): 92.4%
- remaining activity at 3.75 µM ([2]; Well no.=8012): 100%
- remaining activity at 3.75 µM ([2]; Well no.=8342): 91.2%

SMILES: CC(C)(C)C(=O)C(Oc1ccc(Cl)cc1)n1ccnc1 (stereo not drawn) [Climbazole]
- remaining activity at 1.25 µM ([1]; Well no.=2269): 98.8%
- remaining activity at 3.75 µM ([2]; Well no.=2269): 99.5%

SMILES: NC1CCN(c2c(F)cc3c(=O)c(C(=O)O)cn(C4CC4)c3c2Cl)C1 (stereo not drawn) [Clinafloxacin]
- remaining activity at 1.25 µM ([1]; Well no.=2271): 93.2%
- remaining activity at 3.75 µM ([2]; Well no.=2271): 96.8%

SMILES: CCCCCCCCCCCCCCCC(=O)O[C@@H]1[C@@H](O)[C@@H](O)[C@@H]([C@H](NC(=O)[C@@H]2C[C@@H](CCC)CN2C)[C@H](C)Cl)O[C@@H]1SC [Clindamycin palmitate.HCl]
- remaining activity at 1.25 µM ([1]; Well no.=1864): 100%
- remaining activity at 3.75 µM ([2]; Well no.=1864): 102%

SMILES: CCC[C@@H]1C[C@@H](C(=O)N[C@@H]([C@H]2O[C@H](SC)[C@H](OP(=O)(O)O)[C@@H](O)[C@H]2O)[C@H](C)Cl)N(C)C1 [Clindamycin phosphate]
- remaining activity at 1.25 µM ([1]; Well no.=5052): 105%
- remaining activity at 3.75 µM ([2]; Well no.=5052): 104%

SMILES: CCC(C)(Oc1ccc(C2(c3ccc(OC(C)(CC)C(=O)O)cc3)CCCCC2)cc1)C(=O)O (stereo not drawn) [Clinofibrate]
- remaining activity at 1.25 µM ([1]; Well no.=5332): 96.6%
- remaining activity at 3.75 µM ([2]; Well no.=5332): 98.1%

SMILES: CCC(=O)O[C@]1(C(=O)CCl)[C@@H](C)C[C@H]2[C@@H]3CCC4=CC(=O)C=C[C@]4(C)[C@@]3(F)[C@@H](O)C[C@@]21C [Clobetasol propionate]
- remaining activity at 1.25 µM ([1]; Well no.=1924): 98.4%
- remaining activity at 1.25 µM ([1]; Well no.=8301): 95.3%
- remaining activity at 3.75 µM ([2]; Well no.=1924): 99.3%
- remaining activity at 3.75 µM ([2]; Well no.=8301): 89.7%

SMILES: O=P(O)(O)C(Cl)(Cl)P(=O)(O)O [Clodronic acid]
- remaining activity at 1.25 µM ([1]; Well no.=737): 95.6%
- remaining activity at 1.25 µM ([1]; Well no.=1862): 92.6%
- remaining activity at 3.75 µM ([2]; Well no.=737): 96.9%
- remaining activity at 3.75 µM ([2]; Well no.=1862): 90.7%

SMILES: Nc1nc(Cl)nc2c1ncn2[C@@H]1O[C@H](CO)[C@@H](O)[C@@H]1F [Clofarabine]
- remaining activity at 1.25 µM ([1]; Well no.=1927): 103%
- remaining activity at 1.25 µM ([1]; Well no.=8004): 98.8%
- remaining activity at 3.75 µM ([2]; Well no.=1927): 103%
- remaining activity at 3.75 µM ([2]; Well no.=8004): 97.4%

SMILES: CC(C)/N=c1\cc2n(-c3ccc(Cl)cc3)c3ccccc3nc-2cc1Nc1ccc(Cl)cc1 [Clofazimine]
- remaining activity at 1.25 µM ([1]; Well no.=5649): 101%
- remaining activity at 3.75 µM ([2]; Well no.=5649): 100%

SMILES: CCOC(=O)C(C)(C)Oc1ccc(Cl)cc1 [Clofibrate]
- remaining activity at 1.25 µM ([1]; Well no.=326): 94.4%
- remaining activity at 1.25 µM ([1]; Well no.=1899): 94.1%
- remaining activity at 1.25 µM ([1]; Well no.=4468): 93.7%
- remaining activity at 3.75 µM ([2]; Well no.=326): 94.8%
- remaining activity at 3.75 µM ([2]; Well no.=1899): 94%
- remaining activity at 3.75 µM ([2]; Well no.=4468): 99.4%

SMILES: CC(C)(Oc1ccc(Cl)cc1)C(=O)O [Clofibric Acid]
- remaining activity at 1.25 µM ([1]; Well no.=8394): 87%
- remaining activity at 3.75 µM ([2]; Well no.=8394): 81.1%

SMILES: CCCCCCC[N+](CC)(CC)CCCCc1ccc(Cl)cc1 [Clofilium tosylate]
- remaining activity at 1.25 µM ([1]; Well no.=6882): 91.1%
- remaining activity at 3.75 µM ([2]; Well no.=6882): 90.5%

SMILES: CCN(CC)CCOc1ccc(C(=C(Cl)c2ccccc2)c2ccccc2)cc1 [Clomiphene]
- remaining activity at 1.25 µM ([1]; Well no.=2273): 96.5%
- remaining activity at 3.75 µM ([2]; Well no.=2273): 96.3%

SMILES: CN(C)CCCN1c2ccccc2CCc2ccc(Cl)cc21 [Clomipramine hydrochloride]
- remaining activity at 1.25 µM ([1]; Well no.=328): 101%
- remaining activity at 3.75 µM ([2]; Well no.=328): 98.6%

SMILES: Clc1cccc(Cl)c1NC1=NCCN1 [Clonidine (hydrochloride)]
- remaining activity at 1.25 µM ([1]; Well no.=6755): 99.8%
- remaining activity at 3.75 µM ([2]; Well no.=6755): 98.3%

SMILES: Clc1cccc(Cl)c1NC1=NCCN1 [Clonidine hydrochloride]
- remaining activity at 1.25 µM ([1]; Well no.=138): 95.3%
- remaining activity at 3.75 µM ([2]; Well no.=138): 98.8%

SMILES: Clc1cccc(Cl)c1NC1=NCCN1 [Clonidine.HCl]
- remaining activity at 1.25 µM ([1]; Well no.=1691): 96%
- remaining activity at 3.75 µM ([2]; Well no.=1691): 94.2%

SMILES: C[C@@H]1CCC[C@H](C)N1NC(=O)c1ccc(Cl)c(S(N)(=O)=O)c1 [Clopamide]
- remaining activity at 1.25 µM ([1]; Well no.=1773): 96%
- remaining activity at 3.75 µM ([2]; Well no.=1773): 93.8%

SMILES: COC(=O)[C@H](c1ccccc1Cl)N1CCc2sccc2C1 [Clopidogrel (hydrogen sulfate)]
- remaining activity at 1.25 µM ([1]; Well no.=7563): 95.7%
- remaining activity at 1.25 µM ([1]; Well no.=7926): 95.8%
- remaining activity at 3.75 µM ([2]; Well no.=7563): 96.5%
- remaining activity at 3.75 µM ([2]; Well no.=7926): 98.2%
